Experimental data: patent US12077503B2, “Substituted cyclic amides and their use as herbicides” (FMC CORPORATION, priority 2015, dated 2024)

What was measured:
Type in all cases: in vivo
[1] = test system: velvetleaf (Abutilon theophrasti); assay: Test G Pre-Emergence Protocol; conditions: Abutilon theophrasti, pre-emergence, 312 h, evaluated after 13 days; for pest or weed control at 15.625 g/ha: 15.625 g ai/ha; for pest or weed control at 15.625 g/ha / pest or weed control at 250 g/ha: read-out: Velvetleaf damage rating (100=total damage to plant; 0=no damage to plant); for pest or weed control at 62.5 g/ha: 62.5 g ai/ha, 100=total damage to plant, 0=no damage to plant, read-out: plant damage rating, Velvetleaf; for pest or weed control at 250 g/ha: 250 g ai/ha
How it was run: (§1)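 Visual injury (0–100) at day 13 after a single pre-emergence spray. Rates: 15.625, 62.5, 250 g/ha in acetone–water 50:50 with 0.5% Tween 20. Growth conditions: 24/16° C, 14 h light, 65% humidity.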

[2] = test system: giant foxtail (Setaria faberi); assay: Test G Pre-Emergence Protocol; conditions: Setaria faberi, pre-emergence, 312 h, evaluated after 13 days; for pest or weed control at 15.625 g/ha: 15.625 g ai/ha; for pest or weed control at 15.625 g/ha / pest or weed control at 250 g/ha: read-out: Foxtail, Giant damage rating (100=total damage to plant; 0=no damage to plant); for pest or weed control at 62.5 g/ha: 62.5 g ai/ha, 100=total damage to plant, 0=no damage to plant, read-out: plant damage rating, Foxtail, Giant; for pest or weed control at 250 g/ha: 250 g ai/ha
How it was run: as §1

[3] = test system: barnyardgrass (Echinochloa crus-galli); assay: Test G Pre-Emergence Protocol; conditions: Echinochloa crus-galli, pre-emergence, 312 h, evaluated after 13 days; for pest or weed control at 15.625 g/ha: 15.625 g ai/ha, read-out: Barnyard grass damage rating (100=total damage to plant; 0=no damage to plant); for pest or weed control at 62.5 g/ha: 62.5 g ai/ha, 100=total damage to plant, 0=no damage to plant, read-out: plant damage rating, Barnyardgrass; for pest or weed control at 250 g/ha: 250 g ai/ha, read-out: Barnyardgrass damage rating (100=total damage to plant; 0=no damage to plant)
How it was run: as §1

[4] = test system: redroot pigweed (Amaranthus retroflexus); assay: Test G Pre-Emergence Protocol; conditions: Amaranthus retroflexus, pre-emergence, 312 h, evaluated after 13 days; for pest or weed control at 15.625 g/ha: 15.625 g ai/ha; for pest or weed control at 15.625 g/ha / pest or weed control at 250 g/ha: read-out: Pigweed, Redroot damage rating (100=total damage to plant; 0=no damage to plant); for pest or weed control at 62.5 g/ha: 62.5 g ai/ha, 100=total damage to plant, 0=no damage to plant, read-out: plant damage rating, Pigweed, Redroot; for pest or weed control at 250 g/ha: 250 g ai/ha
How it was run: as §1

[5] = test system: ivy-leaved morning glory (Ipomoea hederacea); assay: Test G Pre-Emergence Protocol; conditions: Ipomoea, pre-emergence, 312 h, evaluated after 13 days; for pest or weed control at 15.625 g/ha: 15.625 g ai/ha, read-out: Morning-glory, Ivy-leaved damage rating (100=total damage to plant; 0=no damage to plant); for pest or weed control at 62.5 g/ha: 62.5 g ai/ha, 100=total damage to plant, 0=no damage to plant, read-out: plant damage rating, Morningglory, Ivy-leaved; for pest or weed control at 250 g/ha: 250 g ai/ha, read-out: Morningglory, Ivy-leaved damage rating (100=total damage to plant; 0=no damage to plant)
How it was run: as §1

corn (Zea mays) [6] = assay: Test G Pre-Emergence Protocol; conditions: Zea mays, pre-emergence, 312 h, evaluated after 13 days; for plant injury at 15.625 g/ha: 15.625 g ai/ha; for plant injury at 15.625 g/ha / plant injury at 250 g/ha: read-out: Corn damage rating (100=total damage to plant; 0=no damage to plant); for plant injury at 62.5 g/ha: 62.5 g ai/ha, 100=total damage to plant, 0=no damage to plant, read-out: plant damage rating, Corn; for plant injury at 250 g/ha: 250 g ai/ha
How it was run: as §1

[7] = test system: velvetleaf (Abutilon theophrasti); assay: Test G Post-Emergence Protocol; conditions: Abutilon theophrasti, post-emergence, 312 h; for pest or weed control at 15.625 g/ha: 15.625 g ai/ha, evaluated after 13 days (100=total damage to plant; 0=no damage to plant), read-out: Velvetleaf damage rating; for pest or weed control at 62.5 g/ha: 62.5 g ai/ha, read-out: Velvetleaf damage rating (100=total damage to plant; 0=no damage to plant); for pest or weed control at 62.5 g/ha / pest or weed control at 250 g/ha: evaluated after 13 days; for pest or weed control at 250 g/ha: 250 g ai/ha, read-out: damage to plant, Velvetleaf (100=total damage to plant; 0=no damage to plant)
How it was run: (§2)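 Values are percent visual injury at 13 days after treatment (0 none, 100 total). Treatment was a post-emergence spray at 15.625, 62.5 or 250 g/ha on 8-day-old pot plants kept at 24/16 °C.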

[8] = test system: giant foxtail (Setaria faberi); assay: Test G Post-Emergence Protocol; conditions: Setaria faberi, post-emergence, 312 h; for pest or weed control at 15.625 g/ha: 15.625 g ai/ha, evaluated after 13 days (100=total damage to plant; 0=no damage to plant), read-out: Foxtail, Giant damage rating; for pest or weed control at 62.5 g/ha: 62.5 g ai/ha, read-out: Foxtail, Giant damage rating (100=total damage to plant; 0=no damage to plant); for pest or weed control at 62.5 g/ha / pest or weed control at 250 g/ha: evaluated after 13 days; for pest or weed control at 250 g/ha: 250 g ai/ha, read-out: damage to plant, Foxtail, Giant (100=total damage to plant; 0=no damage to plant)
How it was run: as §2

[9] = test system: barnyardgrass (Echinochloa crus-galli); assay: Test G Post-Emergence Protocol; conditions: Echinochloa crus-galli, post-emergence, 312 h; for pest or weed control at 15.625 g/ha: 15.625 g ai/ha, evaluated after 13 days (100=total damage to plant; 0=no damage to plant), read-out: Barnyardgrass damage rating; for pest or weed control at 62.5 g/ha: 62.5 g ai/ha, read-out: Barnyardgrass damage rating (100=total damage to plant; 0=no damage to plant); for pest or weed control at 62.5 g/ha / pest or weed control at 250 g/ha: evaluated after 13 days; for pest or weed control at 250 g/ha: 250 g ai/ha, read-out: damage to plant, Barnyardgrass (100=total damage to plant; 0=no damage to plant)
How it was run: as §2

[10] = test system: redroot pigweed (Amaranthus retroflexus); assay: Test G Post-Emergence Protocol; conditions: Amaranthus retroflexus, post-emergence, 312 h; for pest or weed control at 15.625 g/ha: 15.625 g ai/ha, evaluated after 13 days (100=total damage to plant; 0=no damage to plant), read-out: Pigweed, Redroot damage rating; for pest or weed control at 62.5 g/ha: 62.5 g ai/ha, read-out: Pigweed, Redroot damage rating (100=total damage to plant; 0=no damage to plant); for pest or weed control at 62.5 g/ha / pest or weed control at 250 g/ha: evaluated after 13 days; for pest or weed control at 250 g/ha: 250 g ai/ha, read-out: damage to plant, Pigweed, Redroot (100=total damage to plant; 0=no damage to plant)
How it was run: as §2

[11] = test system: ivy-leaved morning glory (Ipomoea hederacea); assay: Test G Post-Emergence Protocol; conditions: Ipomoea, post-emergence, 312 h; for pest or weed control at 15.625 g/ha: 15.625 g ai/ha, evaluated after 13 days (100=total damage to plant; 0=no damage to plant), read-out: Morningglory, Ivy-leaved damage rating; for pest or weed control at 62.5 g/ha: 62.5 g ai/ha, read-out: Morningglory, Ivy-leaved damage rating (100=total damage to plant; 0=no damage to plant); for pest or weed control at 62.5 g/ha / pest or weed control at 250 g/ha: evaluated after 13 days; for pest or weed control at 250 g/ha: 250 g ai/ha, read-out: damage to plant, Morningglory, Ivy-leaved (100=total damage to plant; 0=no damage to plant)
How it was run: as §2

corn (Zea mays) [12] = assay: Test G Post-Emergence Protocol; conditions: Zea mays, post-emergence, 312 h; for plant injury at 15.625 g/ha: 15.625 g ai/ha, evaluated after 13 days (100=total damage to plant; 0=no damage to plant), read-out: Corn damage rating; for plant injury at 62.5 g/ha: 62.5 g ai/ha, read-out: Corn damage rating (100=total damage to plant; 0=no damage to plant); for plant injury at 62.5 g/ha / plant injury at 250 g/ha: evaluated after 13 days; for plant injury at 250 g/ha: 250 g ai/ha, read-out: damage to plant, Corn (100=total damage to plant; 0=no damage to plant)
How it was run: as §2

Compound	pest or weed control at 15.625 g/ha [1] [%]	pest or weed control at 62.5 g/ha [1] [%]	pest or weed control at 250 g/ha [1] [%]	pest or weed control at 15.625 g/ha [2] [%]	pest or weed control at 62.5 g/ha [2] [%]	pest or weed control at 250 g/ha [2] [%]	pest or weed control at 15.625 g/ha [3] [%]	pest or weed control at 62.5 g/ha [3] [%]	pest or weed control at 250 g/ha [3] [%]	pest or weed control at 15.625 g/ha [4] [%]	pest or weed control at 62.5 g/ha [4] [%]	pest or weed control at 250 g/ha [4] [%]	pest or weed control at 15.625 g/ha [5] [%]	pest or weed control at 62.5 g/ha [5] [%]	pest or weed control at 250 g/ha [5] [%]	plant injury at 15.625 g/ha (corn (Zea mays) [6]) [%]	plant injury at 62.5 g/ha (corn (Zea mays) [6]) [%]	plant injury at 250 g/ha (corn (Zea mays) [6]) [%]	pest or weed control at 15.625 g/ha [7] [%]	pest or weed control at 62.5 g/ha [7] [%]	other results
CN1C[C@@H](c2ccc(C(F)(F)F)cc2)[C@@](O)(C(=O)Nc2cccc(F)c2F)C1=O (racemic) [Compound 1403]	0	0	0	0	0	0	0	0	0	0	0	0	0	0	0	0	0	0	0	0	pest or weed control at 250 g/ha [7]: 0%; pest or weed control at 15.625 g/ha [8]: 0%; pest or weed control at 62.5 g/ha [8]: 0%; pest or weed control at 250 g/ha [8]: 0%; pest or weed control at 15.625 g/ha [9]: 0%; pest or weed control at 62.5 g/ha [9]: 0%; pest or weed control at 250 g/ha [9]: 10%; pest or weed control at 15.625 g/ha [10]: 10%; pest or weed control at 62.5 g/ha [10]: 10%; pest or weed control at 250 g/ha [10]: 10%; pest or weed control at 15.625 g/ha [11]: 0%; pest or weed control at 62.5 g/ha [11]: 0%; pest or weed control at 250 g/ha [11]: 0%; plant injury at 15.625 g/ha (corn (Zea mays) [12]): 10%; plant injury at 62.5 g/ha (corn (Zea mays) [12]): 10%; plant injury at 250 g/ha (corn (Zea mays) [12]): 20%
CN1C[C@H](c2ccc(C(F)(F)F)cc2)[C@@H](C(=O)Nc2ccc(F)cc2[N+](=O)[O-])C1=O (racemic) [Compound 1425]	0	0	0	10	80	80	0	40	60	0	0	0	0	0	0	0	0	0	0	0	pest or weed control at 250 g/ha [7]: 0%; pest or weed control at 15.625 g/ha [8]: 10%; pest or weed control at 62.5 g/ha [8]: 40%; pest or weed control at 250 g/ha [8]: 50%; pest or weed control at 15.625 g/ha [9]: 0%; pest or weed control at 62.5 g/ha [9]: 20%; pest or weed control at 250 g/ha [9]: 20%; pest or weed control at 15.625 g/ha [10]: 20%; pest or weed control at 62.5 g/ha [10]: 30%; pest or weed control at 250 g/ha [10]: 40%; pest or weed control at 15.625 g/ha [11]: 0%; pest or weed control at 62.5 g/ha [11]: 0%; pest or weed control at 250 g/ha [11]: 0%; plant injury at 15.625 g/ha (corn (Zea mays) [12]): 10%; plant injury at 62.5 g/ha (corn (Zea mays) [12]): 10%; plant injury at 250 g/ha (corn (Zea mays) [12]): 10%
